From patent EP3811940B1, “SUBSTITUTED 4,5'-BITHIAZOLES AS INHIBITORS OF THE HUMAN DNA TOPOISOMERASE II” (Kemijski Institut, priority 2019, dated 2021) come the findings set out here.

Experiment [1] addresses T1, human topo IIα ATPase domain (Homo sapiens, UniProt P11388).
T1 construct: The ATPase fragment with 1-453 amino acid residues was purchase from Inspiralis; purchased Inspiralis
As to the kind of experiment: microscale thermophoresis (MST) binding. The following applies: three independent runs; initial fluorescence; labelled protein 20 nM. The source says: Figure 2. […] The graph shown is representative of two independent experiments.

In experiment [2] the test system is HepG2 cells. As to the kind of experiment: cell cycle analysis by flow cytometry (Hoechst 33342). The settings on record: 24h, mean ± SD of 3; for S phase, percent of HepG2 cells: listed as head printed "5" in Table 7. It is filed as cell-based, human. Here is the method:
(§1) Figure 4. Cell cycle analysis, cell proliferation and induction of the DNA double stand breaks (DBS) by the selected substituted 4,5'-bithiazole compound 1. (A) Percent of HepG2 cells in certain phases of cell cycle after 24h treatment to compound 1 at 50 µM and 10 µM in comparison with the solvent control (0). […] (B) Percent of proliferative cells after 24h treatment to compound 1 at 50 µM and 10 µM determined with the Ki67 antibody. (C) Results of the analyses of the induction of the DNA double strand breaks by γ-H2AX assay. Distribution of the fluorescent signals of individual cells in the samples is shown. Data are presented as quantile box plots. The edges of the box represent the 25th and 75th percentiles, the median is a solid line through the box, and the bars represent 95% confidence intervals. In each sample, 10^4 events were recorded, and experiments were repeated three times independently. Significant difference between treated cells and the solvent control (0) is indicated by * p < 0.05, ** p < 0.01 and *** p < 0.001.
(§2) After the exposure floating and adherent cells were collected by trypsinization. For the fixation the cells were centrifuged at 800 rpm, 4°C for 5 min, washed twice with ice cold PBS, resuspended in 0.5 mL cold PBS and ethanol (1.5 mL) was added drop wise into the cell pellet, while vortexing. The cells were fixed at 4°C overnight and stored at -20°C until analysis. Fixed cells were centrifuged at 1200 rpm for 10 min, washed with ice cold 1× PBS and labelled with Anti-H2AX pS139 antibodies (50-fold diluted) for DNA DBS analysis, Ki67 antibodies (50-fold diluted) for proliferation analysis and Hoechst 33342 dye for cell cycle analysis according to the manufacturer's protocol. Flow cytometric analysis was carried out on a MACSQuant Analyzer 10 (Miltenyi Biotech, Germany). FITC intensity, corresponding to proliferation marker Ki67+, was detected in the FITC-A channel and cell cycle analysis was detected in VioBlueA channel. APC intensity, corresponding to DSBs, was detected in the APC-A channel. Unspecific binding was checked with rea-FITC and rea-APC antibodies (Miltenyi Biotec, Germany). In each sample, 10 000 events were recorded. Independent experiments were repeated three times. […] For further analysis the raw data was exported from MACSQuantify software and it was converted to. fcs format and further to the .csv format. For the yH2AX foci analysis the statistical significance between treated groups and the vehicle control was determined with a linear mixed-effects model. Calculations were done with the statistical program R [49] and its packages reshape and nlme.
A general note: In flow cytometry, cells or beads pass a laser one at a time.

Experiment [3] relates to HepG2 cells. Kind of experiment: γ-H2AX assay, induction of DNA double strand breaks. It is filed as cell-based, human. The settings on record: 24h, result in words. On the procedure:
as §1, with “The edges of the box represent the 25th and 75th percentiles, the median is a solid line through the box, and the bars represent 95% confidence intervals.” left out, “Significant difference between treated cells and the solvent control (0) is indicated by * p < 0.05, ** p < 0.01 and *** p < 0.001.” left out
After the exposure floating and adherent cells were collected by trypsinization. […] FITC intensity, corresponding to proliferation marker Ki67+, was detected in the FITC-A channel and cell cycle analysis was detected in VioBlueA channel. APC intensity, corresponding to DSBs, was detected in the APC-A channel. […] In each sample, 10 000 events were recorded. […] For the yH2AX foci analysis the statistical significance between treated groups and the vehicle control was determined with a linear mixed-effects model. […]

The test system of experiment [4] is HepG2 cells. As to the kind of experiment: cell proliferation, Ki-67 marker, flow cytometry. Format: cell-based, human. The following applies: 24h. On the procedure:
as §2, with “For” for “For further analysis the raw data was exported from MACSQuantify software and it was converted to. fcs format and further to the .csv format. For”, “Calculations were done with the statistical program R [49] and its packages reshape and nlme.” left out

The next experiment concerns the target T2, human topo IIα (Homo sapiens, UniProt P11388).
T2 construct: purchased Inspiralis (Norwich, UK)
Kind of experiment: competitive ATPase assay at different ATP concentrations. Format: biochemical. Here is the method: Then, we performed the competitive ATPase assay for compound 1, to investigate how our class of compounds affects the ATP hydrolysis in dependence of ATP concentration. Assay was performed at 8 different concentrations of ATP and compound 1. […] The assay was carried out in two parallels. […] In addition, we also calculated the IC50 values of compound 1 vs. different concentrations of the ATP.
Compound were analyzed using a linked ATPase assay in which the ADP produced by the hydrolysis of ATP leads to the conversion of NADH to NAD by a pyruvate kinase/lactate dehydrogenase mix. The disappearance of NADH was monitored at 340 nm. A mix of the assay buffer (5 µL of 10X buffer per assay: final conc. 20 mM Tris-HCl, 5 mM magnesium acetate, 125 mM potassium acetate, 2 mM DTT, pH 7.9), linear pBR322 (1.5 µL of 1mg/mL per assay), phosphoenol pyruvate (0.5 µL of 80 mM per assay), pyruvate kinase/lactate dehydrogenase mix (0.75 µL per assay), NADH (1 µL of 20 mM per assay), DMSO (1.5 µL per assay), and water (32.85 µL per assay) was made. 41.1 µL of this mixture was aliquoted into the wells of a 384-well microtiter plate. 0.5 µL of DMSO or the investigated compound were added to the wells and mixed. 5 µL of the dilution buffer or human topo IIα (200 nM stock giving the 12 nM final concentration) were then added and mixed. A pre-run was done before the run was started by adding 3.4 µL of the appropriate concentration of ATP and the OD340 monitored for up to 35 minutes. Assays were performed at 37 °C. Two negative controls (4 % DMSO and dilution buffer without enzyme) were run in the presence of 2 mM ATP. This assay was performed at 8 different concentrations of the ATP (0.025, 0.05, 0.075, 0.1, 0.25, 0.5, 0.75 and 1 mM). Assays were performed at 3.9, 31, 50, 75 and 100 µM final concentrations of the investigated compound 1. The final DMSO concentration in all the reactions was 4 % (v/v). Assay was performed in duplicate. The human topo competitive ATPase assay was performed in collaboration with Inspiralis (Norwich, UK).

“And” between values parts separate entries of the source, which are not always exact repeats. Equal values may be shown once.

A word on the Kd: it is the free concentration of one partner at which half of the binding sites on the other are occupied at equilibrium, for simple one-to-one binding. Lower therefore signals higher affinity. Usually IC50 stands for the concentration that inhibits the measured activity by half. A high value points to lower potency.

T2 sequence (P11388 whole entry): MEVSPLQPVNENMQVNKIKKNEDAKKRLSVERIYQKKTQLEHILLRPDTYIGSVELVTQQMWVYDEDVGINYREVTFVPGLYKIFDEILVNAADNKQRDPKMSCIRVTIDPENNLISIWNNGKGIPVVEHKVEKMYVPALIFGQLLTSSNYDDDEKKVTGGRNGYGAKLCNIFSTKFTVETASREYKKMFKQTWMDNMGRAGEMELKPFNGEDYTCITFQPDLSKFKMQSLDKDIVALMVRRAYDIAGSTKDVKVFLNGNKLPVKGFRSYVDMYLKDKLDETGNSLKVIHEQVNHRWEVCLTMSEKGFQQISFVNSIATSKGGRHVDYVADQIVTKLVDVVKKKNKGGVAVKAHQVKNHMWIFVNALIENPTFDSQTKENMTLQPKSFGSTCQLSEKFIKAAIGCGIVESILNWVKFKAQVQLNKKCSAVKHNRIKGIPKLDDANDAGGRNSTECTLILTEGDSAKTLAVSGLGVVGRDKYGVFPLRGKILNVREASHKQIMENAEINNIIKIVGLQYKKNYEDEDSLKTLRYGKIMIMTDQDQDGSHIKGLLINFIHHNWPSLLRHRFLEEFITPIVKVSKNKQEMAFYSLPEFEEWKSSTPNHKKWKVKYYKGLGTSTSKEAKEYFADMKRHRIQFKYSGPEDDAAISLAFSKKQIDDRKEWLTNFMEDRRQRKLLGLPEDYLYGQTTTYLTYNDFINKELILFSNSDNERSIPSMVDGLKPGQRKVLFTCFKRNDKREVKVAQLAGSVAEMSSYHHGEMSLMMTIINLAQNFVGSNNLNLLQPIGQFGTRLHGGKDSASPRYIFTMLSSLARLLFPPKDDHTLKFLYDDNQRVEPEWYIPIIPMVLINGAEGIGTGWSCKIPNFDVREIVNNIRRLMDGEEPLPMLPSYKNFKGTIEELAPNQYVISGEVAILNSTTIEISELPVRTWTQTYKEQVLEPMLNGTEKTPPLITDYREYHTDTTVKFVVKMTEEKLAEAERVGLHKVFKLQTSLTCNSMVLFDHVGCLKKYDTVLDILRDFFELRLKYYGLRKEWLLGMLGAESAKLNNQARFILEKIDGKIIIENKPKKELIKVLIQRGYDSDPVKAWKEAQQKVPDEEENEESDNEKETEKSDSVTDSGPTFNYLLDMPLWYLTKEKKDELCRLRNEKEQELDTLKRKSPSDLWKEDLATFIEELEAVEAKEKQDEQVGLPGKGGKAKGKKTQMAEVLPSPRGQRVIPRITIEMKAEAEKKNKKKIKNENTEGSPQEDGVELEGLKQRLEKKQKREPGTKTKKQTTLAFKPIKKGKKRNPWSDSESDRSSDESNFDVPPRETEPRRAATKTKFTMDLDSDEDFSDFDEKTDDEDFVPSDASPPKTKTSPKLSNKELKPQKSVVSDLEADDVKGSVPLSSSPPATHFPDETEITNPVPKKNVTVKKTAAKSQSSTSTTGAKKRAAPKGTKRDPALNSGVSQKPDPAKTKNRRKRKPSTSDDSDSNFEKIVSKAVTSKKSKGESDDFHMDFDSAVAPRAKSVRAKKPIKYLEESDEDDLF
T1 sequence (P11388 1-453): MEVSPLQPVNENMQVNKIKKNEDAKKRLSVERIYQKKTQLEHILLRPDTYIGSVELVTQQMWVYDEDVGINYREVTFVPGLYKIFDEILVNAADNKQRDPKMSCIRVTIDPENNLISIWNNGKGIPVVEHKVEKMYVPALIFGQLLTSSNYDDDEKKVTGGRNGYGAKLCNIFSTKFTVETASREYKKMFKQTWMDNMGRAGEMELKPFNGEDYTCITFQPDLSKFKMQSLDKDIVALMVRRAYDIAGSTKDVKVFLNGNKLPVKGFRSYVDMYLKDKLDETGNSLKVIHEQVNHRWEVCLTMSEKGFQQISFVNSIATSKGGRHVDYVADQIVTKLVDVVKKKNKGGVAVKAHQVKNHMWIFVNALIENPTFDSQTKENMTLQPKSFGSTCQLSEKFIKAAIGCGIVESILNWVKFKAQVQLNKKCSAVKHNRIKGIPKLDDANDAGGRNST

Regarding `Cc1nc(N)sc1-c1csc(Nc2ccc(C(F)(F)F)cc2)n1` [Compound 1, 4'-methyl-N2-(4-(trifluoromethyl)phenyl)-[4,5'-bithiazole]-2,2'-diamine], the Kd in experiment [1] is 50.6 ± 7.6 µM. The “>G1, G2<, percent of HepG2 cells” value came to 1.2 ± 1.0% in the experiment on HepG2 cells [2] (10 µM) and 1.4 ± 0.6% in the experiment on HepG2 cells [2] (50 µM). For the same compound, the “G1 phase, percent of HepG2 cells” value in the experiment with HepG2 cells [2] (10 µM) is 56.5% and 56.5 ± 6.4%; in the experiment on HepG2 cells [2] (50 µM) it was 60.6% and 60.6 ± 7.0^∗ %. In addition, the “G2 phase, percent of HepG2 cells” value in the experiment with HepG2 cells [2] (10 µM) is given as 24.8 ± 4.5%; with HepG2 cells [2] (50 µM), 26.2 ± 2.5%. Further, the “S phase, percent of HepG2 cells” value was 17.5% and 17.5 ± 1.1^∗∗∗ % in the experiment with HepG2 cells [2] (10 µM); 17.5% and 11.8 ± 4.5^∗∗ % in the experiment with HepG2 cells [2] (50 µM). The “DNA DSB formation” value in the experiment with HepG2 cells [3] (10 µM) and with HepG2 cells [3] (50 µM) was “no increase” each time. In addition, the “Percent of cell proliferation (Ki-67 positive)” value with HepG2 cells [4] (10 µM) is listed as 88.6%; with HepG2 cells [4] (50 µM) it was 81.3%. Further, the IC50 on human topo IIα (c(ATP) 0.025) stood at 3.8 µM; at human topo IIα (c(ATP) 0.05), 8.8 µM; at human topo IIα (c(ATP) 0.075), 14.8 µM; at human topo IIα (c(ATP) 0.1) it was 9.4 µM; at human topo IIα (c(ATP) 0.25), 18.3 µM; on human topo IIα (c(ATP) 0.5), 15.2 µM. Besides, the IC50 amounted to 17.8 µM at human topo IIα (c(ATP) 0.75), 21.6 µM at human topo IIα (c(ATP) 1) and 25.4 µM at human topo IIα (c(ATP) 2).
